Source: ChEMBL document CHEMBL1142471, “Antioxidant capacity of human blood plasma and human urine: simultaneous evaluation of the ORAC index and ascorbic acid concentration employing pyrogallol red as probe” (Bioorg Med Chem, 2008)

Tests used:
Format in all cases: functional
[1] = Antioxidant activity assessed as oxygen radical absorbance capacity index value by fluorescein protection assay
[2] = Antioxidant activity assessed as oxygen radical absorbance capacity index value at 5 uM by pyrogallol red protection assay
[3] = Antioxidant activity assessed as oxygen radical absorbance capacity index value by pyrogallol red protection assay

Row | Compound | Activity [1] | Activity [2] | Activity [3]
1 | O=C1O[C@H]([C@@H](O)CO)C(O)=C1O | 0.95 | 9.7 | –
2 | N[C@@H](CCC(=O)N[C@@H](CS)C(=O)NCC(=O)O)C(=O)O | 0.62 | – | –
3 | Oc1nc(O)c2nc(O)[nH]c2n1 | 0.72 | – | 0.02
